Experimental data taken from patent US4820821A, “Novel pyridazinone-imines and their physiologically tolerated addition salts with acids, their preparation and therapeutic agents containing these compounds” (BASF Aktiengesellschaft, priority 1981, dated 1989).

Tests used:
[1] = tested on: reserpine-induced hypothermia; assay: Antidepressive action: reserpine antagonism, inhibition of reserpine-induced hypothermia of the mouse; assay type: in vivo, male Swiss mice; settings: Table 1
Protocol: Antidepressants effect dose-dependent inhibition of this hypotherma. The test substances are administered orally 60 minutes before the administration of reserpine.
The dose which effects 50% inhibition of the reserpine-induced hypothermia is determined, as the ED 50%, from the linear regression between log dose (mg/kg) and relative reduction in hypothermia (Δ%).

blood pressure = assay: Effect on the blood pressure: hypertensive action, pithed rat; assay type: in vivo, male Sprague-Dawley rats; settings: Table 1, i.v. administration
Protocol: The measurement of the blood pressure in the carotid artery was carried out by means of Statham transducers. The substance was administered in the jugular vein (as an aqueous solution, 1 ml/kg) or intraperitoneally (as a tragacanth suspension, 2 ml/kg). The ED 20% is determined as the dose which increases the blood pressure by 20%.

[2] = tested on: reserpine-induced hypothermia / blood pressure; assay: Quotient ED 50% antidepressive action / ED 20% hypertensive action; assay type: in vivo, mouse / rat; settings: hypertensive test i.v.
Text: This is evident from the fact that the quotient defined above differs wtih respect to the comparative compounds. […] This arises, inter alia, from the fact that the hypertensive ED 20 constitutes the denominator of the quotient. It is possible that the unforeseeable selective direction of action is attributable to the special substitution,in accordance with the invention, at the 4-imino group.

## CCNC(=S)N=c1ccn(-c2ccccc2)nc1 [Example 87, 1,4-dihydro-4-(ethylthiocarbamyl)-imino-1-phenylpyridazine]
[1]; Mus musculus, oral administration 60 min before reserpine, dose based on the base, read-out: ED 50% (dose which inhibits the reserpine-induced hypothermia of the mouse by 50%)
  ED50: 2.91 mg/kg
[1]; amezinium = 1.00, oral
  R.A. (relative activity), reserpine antagonism: 0.25
Blood pressure; Rattus norvegicus, iv, dose based on the base, read-out: ED 20% hypertensive action (dose which increases the blood pressure of the pithed rat by 20%)
  ED20: > 1 mg/kg
Blood pressure; amezinium = 1.00
  R.A. (relative activity), hypertensive action: < 0.05
[2]
  Q (quotient ED 50% antidepressive action/ED 20% hypertensive action): < 2.91
